Article doi:10.1101/2021.01.05.425432v2 (biorxiv, 2021)
Converted amounts (≈) assume the structure as drawn. Read-outs that look alike come from different tables or passages of the source.

Experiments:
H. pylori urease (HPU) [1] = molecular target: T1, H. pylori urease (HPU) (Helicobacter pylori, UniProt P69996); assay: tandem-well NH3 assay, Nessler's reagent, crude extract; format: biochemical
H. pylori [2] = assay: microbe, parasite or virus in culture; settings: Helicobacter pylori, 72 h, read-out: H. pylori (MIC) µg/ml
H. pylori [3] = assay: microbe, parasite or virus in culture; settings: Helicobacter pylori, 72 h, read-out: H. pylori (MIC) µM
jack bean urease (JBU) [4] = molecular target: T2, jack bean urease (JBU) (Canavalia ensiformis, UniProt P07374); assay: tandem-well NH3 assay, salicylic acid-hypochlorite; format: biochemical
T2 sequence (P07374 whole entry, looked up): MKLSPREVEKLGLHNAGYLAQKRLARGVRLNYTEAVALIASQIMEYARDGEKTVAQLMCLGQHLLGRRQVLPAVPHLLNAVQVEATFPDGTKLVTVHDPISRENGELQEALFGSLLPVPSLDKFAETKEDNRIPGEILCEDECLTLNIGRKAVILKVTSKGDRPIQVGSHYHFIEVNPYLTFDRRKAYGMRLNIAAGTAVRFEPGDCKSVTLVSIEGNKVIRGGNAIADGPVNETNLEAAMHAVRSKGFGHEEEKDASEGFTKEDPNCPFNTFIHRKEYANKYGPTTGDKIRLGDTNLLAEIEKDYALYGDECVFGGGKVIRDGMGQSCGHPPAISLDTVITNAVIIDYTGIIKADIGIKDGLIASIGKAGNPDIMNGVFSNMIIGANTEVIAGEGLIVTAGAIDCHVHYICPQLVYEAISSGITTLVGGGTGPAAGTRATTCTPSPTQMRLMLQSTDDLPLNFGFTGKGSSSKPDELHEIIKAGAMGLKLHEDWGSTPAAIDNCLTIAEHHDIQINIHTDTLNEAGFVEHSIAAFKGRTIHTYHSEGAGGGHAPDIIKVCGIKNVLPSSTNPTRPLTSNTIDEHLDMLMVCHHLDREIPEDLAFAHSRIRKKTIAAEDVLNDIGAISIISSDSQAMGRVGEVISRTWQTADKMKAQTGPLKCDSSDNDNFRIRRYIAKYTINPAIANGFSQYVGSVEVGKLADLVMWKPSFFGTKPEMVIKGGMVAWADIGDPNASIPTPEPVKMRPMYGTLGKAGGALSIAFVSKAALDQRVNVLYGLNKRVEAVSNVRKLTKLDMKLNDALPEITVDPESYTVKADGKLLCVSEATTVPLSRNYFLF

O. anthropi urease (OAU) = format: biochemical, Brucella anthropi
H. pylori urease (HPU) [5] = molecular target: T1, H. pylori urease (HPU); assay: cell-based
human CBS (hCBS) = molecular target: T3, human CBS (hCBS) (Homo sapiens, UniProt P35520); assay: tandem-well H2S assay; format: biochemical
T3 sequence (P35520 1-551): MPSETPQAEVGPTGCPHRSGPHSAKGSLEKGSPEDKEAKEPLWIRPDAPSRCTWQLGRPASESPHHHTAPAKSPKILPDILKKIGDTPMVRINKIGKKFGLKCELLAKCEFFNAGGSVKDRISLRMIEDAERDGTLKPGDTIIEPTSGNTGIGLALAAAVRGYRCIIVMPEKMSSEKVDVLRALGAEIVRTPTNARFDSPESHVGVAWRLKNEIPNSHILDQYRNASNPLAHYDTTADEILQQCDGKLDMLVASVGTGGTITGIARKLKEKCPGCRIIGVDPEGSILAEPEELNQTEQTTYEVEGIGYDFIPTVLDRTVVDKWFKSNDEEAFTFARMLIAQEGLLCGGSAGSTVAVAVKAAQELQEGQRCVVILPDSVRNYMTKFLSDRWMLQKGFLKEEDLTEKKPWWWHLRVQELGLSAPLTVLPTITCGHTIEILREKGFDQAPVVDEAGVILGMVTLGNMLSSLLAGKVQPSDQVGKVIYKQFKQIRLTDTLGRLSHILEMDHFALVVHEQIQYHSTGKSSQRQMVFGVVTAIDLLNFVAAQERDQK

human CSE (hCSE) = human CSE (hCSE) (Homo sapiens, UniProt P32929); assay: tandem-well H2S assay; format: biochemical
Chain of human CSE (hCSE) (P32929 whole entry): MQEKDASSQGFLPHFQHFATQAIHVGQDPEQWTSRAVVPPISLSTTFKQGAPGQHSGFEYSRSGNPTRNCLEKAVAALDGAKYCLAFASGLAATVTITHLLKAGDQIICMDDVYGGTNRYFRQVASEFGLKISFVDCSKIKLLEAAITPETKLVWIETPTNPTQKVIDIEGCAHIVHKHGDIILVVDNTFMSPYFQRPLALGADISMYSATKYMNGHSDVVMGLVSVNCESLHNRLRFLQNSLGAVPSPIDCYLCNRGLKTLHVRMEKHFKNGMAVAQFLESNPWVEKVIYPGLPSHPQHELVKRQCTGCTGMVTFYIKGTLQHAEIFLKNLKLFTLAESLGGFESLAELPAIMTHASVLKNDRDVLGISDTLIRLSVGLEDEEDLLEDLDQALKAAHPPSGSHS

jack bean urease (JBU) [6] = molecular target: T2, jack bean urease (JBU); assay: enzyme kinetics, tandem-well NH3 assay; format: biochemical
jack bean urease (JBU) [7] = molecular target: T2, jack bean urease (JBU); assay: SPR, Biacore T200, JBU immobilised on CM5 chip; format: binding
jack bean urease (JBU) [8] = molecular target: T2, jack bean urease (JBU); assay: enzyme kinetics, tandem-well NH3 assay; format: biochemical; settings: urea 12.5-200 mM; noncompetitive, covalent, allosteric (Cys313)
[9] = 25 mM urea, 100 μM NiCl2, 50 mM phosphate pH 7.4, 37 °C, 30 min preincubation

T1 sequence (P69996 whole entry): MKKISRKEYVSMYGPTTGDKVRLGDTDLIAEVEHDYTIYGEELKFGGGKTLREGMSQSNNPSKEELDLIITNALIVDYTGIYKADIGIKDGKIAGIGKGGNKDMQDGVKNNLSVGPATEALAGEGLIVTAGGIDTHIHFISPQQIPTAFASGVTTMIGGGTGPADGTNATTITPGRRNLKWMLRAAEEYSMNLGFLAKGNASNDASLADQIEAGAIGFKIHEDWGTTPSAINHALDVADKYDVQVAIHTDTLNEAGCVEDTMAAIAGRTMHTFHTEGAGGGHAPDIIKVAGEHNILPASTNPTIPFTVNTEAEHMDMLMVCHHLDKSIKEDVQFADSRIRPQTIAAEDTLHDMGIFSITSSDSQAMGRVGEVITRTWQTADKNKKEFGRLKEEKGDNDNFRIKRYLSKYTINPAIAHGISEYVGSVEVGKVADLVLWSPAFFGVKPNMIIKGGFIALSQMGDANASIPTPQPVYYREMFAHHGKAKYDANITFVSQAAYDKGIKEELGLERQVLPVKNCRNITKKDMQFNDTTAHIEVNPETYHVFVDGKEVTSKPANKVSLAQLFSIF
T1 sequence (P14916 whole entry partner): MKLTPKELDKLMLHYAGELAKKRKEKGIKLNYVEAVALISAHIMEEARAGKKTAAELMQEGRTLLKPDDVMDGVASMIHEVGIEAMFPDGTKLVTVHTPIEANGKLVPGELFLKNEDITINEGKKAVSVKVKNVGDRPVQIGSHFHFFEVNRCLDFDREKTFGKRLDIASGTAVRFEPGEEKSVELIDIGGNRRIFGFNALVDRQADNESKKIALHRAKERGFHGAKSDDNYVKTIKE

Row | SMILES | IC50 (H. pylori urease (HPU) [1]) [µM] | MIC (H. pylori [2]) [µg/mL] | MIC (H. pylori [3]) [µM] | IC50 (jack bean urease (JBU) [4]) [µM] | IC50 (O. anthropi urease (OAU)) [µM] | other results
1 | O=C1c2ccccc2[Se](=O)N1c1ccccc1 (stereo not shown) [Ebselen oxide] | 1.5 ± 0.2 | 4 (≈ 13.8 µM) | 12.5 (≈ 3.63 µg/mL) | 0.4 ± 0.005 | 3.3 ± 0.1 | IC50 (H. pylori urease (HPU) [5]): 23.2 ± 1.1 µM
2 | Cc1ncc([N+](=O)[O-])n1CCO [Metronidazole] | – | > 512 | > 3000 | – | – | –
3 | CCS(=O)(=O)CCn1c([N+](=O)[O-])cnc1C [Tinidazole] | – | > 512 | > 2000 | – | – | –
4 | CN(C)Cc1c(C(=O)NCCOc2ccc(C(=O)NO)cc2)oc2ccccc12 [abexinostat] | 1.3 ± 0.2 | – | – | 1.4 ± 0.3 | – | –
5 | CC(=O)NO [acetohydroxamic acid] | 25.9 ± 1.2 | > 16 | – | 162 ± 13.4 | 2.8 ± 0.9 | IC50 (human CBS (hCBS)): > 200 µM; IC50 (human CSE (hCSE)): > 200 µM; Ki (jack bean urease (JBU) [6]): 2.1 ± 0.8 µM
6 | O=C(/C=C/c1cccc(S(=O)(=O)Nc2ccccc2)c1)NO [belinostat] | 3.2 ± 0.2 | – | – | 4.7 ± 0.5 | – | –
7 | COc1ccc2c(=O)n(-c3ccccc3)[se]c2c1 [compound 1, 2-Phenyl-6-methoxybenzoisoselen-3-one] | – | – | – | – | 7.5 ± 0.6 | IC50 (H. pylori urease (HPU) [1]; [9]): 2 ± 0.9 µM; IC50 (jack bean urease (JBU) [4]; [9]): 0.3 ± 0.007 µM
8 | COc1ccc2c(=O)n(-c3ccccc3)[se]c2c1 [compound 1] | – | 2 (≈ 6.57 µM) | 6.25 (≈ 1.9 µg/mL) | – | – | –
9 | O=c1[nH][se]c2ccccc12 [compound 4, Benzisoselenol-3-one] | 1.1 ± 0.08 | – | – | 0.8 ± 0.008 | 2.2 ± 0.1 | –
10 | O=c1[nH][se]c2ccccc12 [compound 4] | – | 2 (≈ 10.1 µM) | 12.5 (≈ 2.48 µg/mL) | – | – | IC50 (H. pylori urease (HPU) [5]): 18.5 ± 1.2 µM
11 | CCCn1[se]c2ccccc2c1=O [compound 5, 2-Propyl-benzisoselenol-3-one] | > 10 | – | – | 1.4 ± 0.03 | 5.3 ± 0.9 | –
12 | CSn1[se]c2ccccc2c1=O [compound 6, 2-Methylthio-benzisoseleno-3-one] | – | – | – | – | 1.7 ± 0.1 | IC50 (H. pylori urease (HPU) [1]; [9]): 1.3 ± 0.4 µM; IC50 (jack bean urease (JBU) [4]; [9]): 0.3 ± 0.04 µM
13 | c1ccc(C[Se][Se]Cc2ccccc2)cc1 [dibenzyl diselenide] | – | > 64 | > 200 | – | – | –
14 | CCN(CC)C(=S)SSC(=S)N(CC)CC [disulfiram] | 8.9 ± 1.5 | 4 (≈ 13.5 µM) | 12.5 (≈ 3.71 µg/mL) | 38.9 ± 2.7 | 35 ± 0.1 | IC50 (human CBS (hCBS)): > 200 µM; IC50 (human CSE (hCSE)): > 200 µM; IC50 (H. pylori urease (HPU) [5]): 36.3 ± 1 µM
15 | O=c1c2ccccc2[se]n1-c1ccccc1 [ebselen] | 2.8 ± 0.5 | 4 (≈ 14.6 µM) | 12.5 (≈ 3.43 µg/mL) | 0.4 ± 0.07 | 3 ± 1 | Kd (jack bean urease (JBU) [7]): 0.089 ± 0.005 µM; IC50 (human CBS (hCBS)): > 200 µM; IC50 (human CSE (hCSE)): 44.3 ± 1.3 µM; αKi (jack bean urease (JBU) [8]): 0.8 ± 0.2 µM; IC50 (H. pylori urease (HPU) [5]): 5.7 ± 1.3 µM
16 | NO [hydroxylamine] | > 20 | – | – | > 20 | – | –
17 | CNC(=O)[C@H](Cc1c[nH]c2ccccc12)NC(=O)[C@@H](CC(=O)NO)CC(C)C [ilomastat] | > 20 | – | – | > 20 | – | –
18 | Cc1[nH]c2ccccc2c1CCNCc1ccc(/C=C/C(=O)NO)cc1 [panobinostat] | 0.1 ± 0.01 | – | – | 0.2 ± 0.006 | 0.07 ± 0.006 | Kd (jack bean urease (JBU) [7]): 8.9 ± 0.4 µM; IC50 (human CBS (hCBS)): > 200 µM; IC50 (human CSE (hCSE)): > 200 µM; Ki (jack bean urease (JBU) [6]): 0.02 ± 0.01 µM
19 | O=C(CCCCCCNC(=O)c1cnc(N(c2ccccc2)c2ccccc2)nc1)NO [ricolinostat] | > 20 | – | – | > 20 | – | –
20 | O=C(CCCCCCC(=O)Nc1ccccc1)NO [vorinostat] | 14 ± 3.9 | – | – | 4.1 ± 1.9 | – | –
